In ChEMBL document CHEMBL1949661, “Hit to lead evaluation of 1,2,3-triazolo[4,5-b]pyridines as PIM kinase inhibitors” (Bioorg Med Chem Lett, 2012):

How the values were obtained:
[1] = Metabolic stability in human liver microsomes assessed as compound remaining at 1 uM after 15 mins; format: ADME, Microsome; conditions: read-out: Stability
[2] = Metabolic stability in CD-1 mouse liver microsomes assessed as compound remaining at 1 uM after 15 mins; format: ADME, Microsome; conditions: read-out: Stability
[3] = Metabolic stability in Sprague-Dawley rat liver microsomes assessed as compound remaining at 1 uM after 15 mins; format: ADME, Microsome; conditions: read-out: Stability
[4] = Plasma clearance in BALB/C mouse at 5 mg/kg, iv; format: ADME, organism-based; set-up: dose 5 mg/kg, route intravenous
[5] = Half life in BALB/C mouse plasma at 5 mg/kg, iv; format: ADME, organism-based; set-up: dose 5 mg/kg, route intravenous

- remaining at […], 1 µM [1]: 97%
- remaining at […], 1 µM [2]: 80%
- remaining at […], 1 µM [3]: 91%
- clearance [4]: 54.7 mL/min/kg
- half-life [5]: 57 min
SMILES: COc1cc(NCC2CCNCC2)nc2c1nnn2-c1cccc(OC(F)(F)F)c1
